In patent publication US8618289B2 (Ambit Biosciences Corporation, priority 2008, dated 2013):
pEC50, pIC50, pKd: −log10 of the molar value. Read-outs that look alike come from different tables or passages of the source.

Assays:
[1] = system: MEK1 phosphorylation in the A375 human melanoma cell line; experiment: cells; details: A-375, read-out: pMEK IC50
Procedure: A375 cells (from American Type Culture Collection) were plated at 50,000 cells per well in DMEM (Mediatech) with 10% fetal bovine serum (Omega Scientific) into a 96 well plate and incubated overnight in a 37° C. incubator with 10% CO2. The cells were then washed with PBS and the medium replaced with 0.5% FBS for incubation overnight. […] The cells were incubated with compound or control for two hours at 37° C. The compound solution was aspirated off and the cells washed with cold PBS. […] The plate was centrifuged for 30 minutes to pellet out the cell debris. The cleared lysates were transferred to a 96-well Nunc plate and the ELISA protocol described by the manufacturer in Catalog #KHO0321 or KHO0291 was followed.

[2] = target: T1, RAF kinases (Homo sapiens, UniProt P15056, V600E); experiment: biochemical
[3] = target: RAF kinases (Homo sapiens, UniProt P15056); details: read-out: BRAF WT Kd; BRAF WT
Chain of RAF kinases (Homo sapiens, UniProt P15056) (P15056 whole entry): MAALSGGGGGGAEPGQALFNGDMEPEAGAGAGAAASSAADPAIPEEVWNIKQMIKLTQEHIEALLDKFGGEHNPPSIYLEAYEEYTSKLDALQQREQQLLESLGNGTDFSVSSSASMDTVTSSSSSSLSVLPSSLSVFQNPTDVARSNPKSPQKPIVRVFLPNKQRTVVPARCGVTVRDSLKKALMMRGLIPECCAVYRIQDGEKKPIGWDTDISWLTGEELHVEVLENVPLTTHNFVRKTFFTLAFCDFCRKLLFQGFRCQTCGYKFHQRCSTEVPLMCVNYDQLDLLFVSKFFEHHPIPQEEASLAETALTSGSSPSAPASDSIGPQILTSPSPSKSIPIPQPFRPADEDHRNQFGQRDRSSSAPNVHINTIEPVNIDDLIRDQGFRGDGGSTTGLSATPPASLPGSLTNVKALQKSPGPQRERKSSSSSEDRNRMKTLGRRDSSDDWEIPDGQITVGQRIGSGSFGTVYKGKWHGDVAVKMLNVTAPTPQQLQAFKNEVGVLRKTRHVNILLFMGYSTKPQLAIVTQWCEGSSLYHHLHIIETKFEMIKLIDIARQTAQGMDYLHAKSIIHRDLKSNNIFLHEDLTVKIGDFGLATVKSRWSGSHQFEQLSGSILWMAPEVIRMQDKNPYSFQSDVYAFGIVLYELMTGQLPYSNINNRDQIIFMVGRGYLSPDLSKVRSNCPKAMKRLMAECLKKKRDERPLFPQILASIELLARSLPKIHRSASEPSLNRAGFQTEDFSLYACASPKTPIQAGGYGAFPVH

[4] = target: RAF kinases (Homo sapiens, UniProt P04049); details: read-out: RAF1 Kd; RAF1
Chain of RAF kinases (Homo sapiens, UniProt P04049) (P04049 whole entry): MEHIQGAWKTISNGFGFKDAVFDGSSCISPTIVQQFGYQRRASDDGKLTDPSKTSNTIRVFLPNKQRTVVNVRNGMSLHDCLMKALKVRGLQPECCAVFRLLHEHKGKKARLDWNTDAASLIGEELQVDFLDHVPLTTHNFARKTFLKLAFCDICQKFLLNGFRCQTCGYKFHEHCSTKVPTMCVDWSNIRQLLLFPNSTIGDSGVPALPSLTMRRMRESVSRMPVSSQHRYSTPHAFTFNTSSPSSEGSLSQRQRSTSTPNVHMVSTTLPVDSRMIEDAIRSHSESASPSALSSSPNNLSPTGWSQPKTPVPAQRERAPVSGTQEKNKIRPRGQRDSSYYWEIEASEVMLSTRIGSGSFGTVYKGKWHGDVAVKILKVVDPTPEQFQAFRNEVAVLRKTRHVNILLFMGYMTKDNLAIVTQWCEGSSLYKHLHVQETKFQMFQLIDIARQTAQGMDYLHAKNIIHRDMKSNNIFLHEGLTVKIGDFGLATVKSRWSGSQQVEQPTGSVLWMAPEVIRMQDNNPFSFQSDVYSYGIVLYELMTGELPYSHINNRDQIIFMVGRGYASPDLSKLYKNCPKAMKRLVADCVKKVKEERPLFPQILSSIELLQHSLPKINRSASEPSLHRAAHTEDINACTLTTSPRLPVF

[5] = system: A375 cells; experiment: cells; details: Homo sapiens, A-375, read-out: A375 Viability EC50
Procedure: The following day, the medium was replaced with 0.5% FBS in M3 for overnight incubation. […] The cells were incubated with compound or control for 72 hours at 37° C. under 10% CO2. Following incubation, Cell Titer Blue reagent (Promega) was added to each well containing compounds or controls, and then incubated for 3 hours at 37° C. under 10% CO2. Proliferation was measured by fluorescence with excitation at 560 nm and emission at 590 nm using SoftMax Pro.

[6] = target: T1, RAF kinases; details: read-out: BRAF V600E Kd; BRAF V600E

T1 sequence (P15056 whole entry V600E): as the sequence (P15056 whole entry) above, with V600E counted along it

Compound | pIC50 [1] | pKd [2] | pKd [3] | pKd [4] | pEC50 [5] | pKd [6]
COc1cc2ncnc(Oc3cc(NC(=O)Nc4cc(C(C)(C)C)nn4-c4ccc(C)cc4)c(F)cc3F)c2cc1OC [Ex 272, 1-(3-tert-butyl-1-p-tolyl-1H-pyrazol-5-yl)-3-(5-(6,7-dimethoxyquinazolin-4-yloxy)-2,4-difluorophenyl)urea] | > 6.60 | 6.00 to 6.30 | < 6.00 | < 6.00 |  | 
COc1cc2ncnc(Oc3cc(NC(=O)Nc4cc(C(C)(C)C)nn4-c4ccccc4)c(F)cc3F)c2cc1OC [Ex 273, 1-(3-tert-butyl-1-phenyl-1H-pyrazol-5-yl)-3-(5-(6,7-dimethoxyquinazolin-4-yloxy)-2,4-difluorophenyl)urea] | > 6.60 | 6.00 to 6.30 | < 6.00 | < 6.00 |  | 
COc1cc2ncnc(Oc3cccc(NC(=O)Nc4cc(C(C)(C)C)nn4-c4ccc(C)cc4)c3)c2cc1OC [Ex 274, 1-(3-tert-butyl-1-p-tolyl-1H-pyrazol-5-yl)-3-(3-(6,7-dimethoxyquinazolin-4-yloxy)phenyl)urea] | > 6.60 | 6.30 to 6.60 | < 6.00 | < 6.00 |  | 
COc1cc2ncnc(Sc3cccc(NC(=O)Nc4cc(C(C)(C)C)nn4-c4ccc(C)cc4)c3)c2cc1OC [Ex 275, 1-(3-tert-butyl-1-p-tolyl-1H-pyrazol-5-yl)-3-(3-(6,7-dimethoxyquinazolin-4-ylthio)phenyl)urea] | > 6.60 | 6.30 to 6.60 | < 6.00 | < 6.00 |  | 
COc1cc2ncnc(Oc3cccc(NC(=O)Nc4cc(C(C)(C)C)nn4-c4ccc(C)cc4C)c3)c2cc1OC [Ex 282, 1-(3-tert-butyl-1-(2,4-dimethylphenyl)-1H-pyrazol-5-yl)-3-(3-(6,7-dimethoxyquinazolin-4-yloxy)phenyl)urea] | > 6.60 | 6.00 to 6.30 | < 6.00 | < 6.00 |  | 
COc1cc2ncnc(Oc3cccc(NC(=O)Nc4cc(C(C)(C)C)nn4-c4cccc(C)c4)c3)c2cc1OC [Ex 285, 1-(3-tert-butyl-1-m-tolyl-1H-pyrazol-5-yl)-3-(3-(6,7-dimethoxyquinazolin-4-yloxy)phenyl)urea] | > 6.60 | 6.30 to 6.60 | < 6.00 | < 6.00 |  | 
COc1cc2ncnc(Sc3cccc(NC(=O)Nc4cc(C(C)(C)C)nn4-c4cccc(C)c4)c3)c2cc1OC [Ex 286, 1-(3-tert-butyl-1-m-tolyl-1H-pyrazol-5-yl)-3-(3-(6,7-dimethoxyquinazolin-4-ylthio)phenyl)urea] | > 6.60 | 6.30 to 6.60 | < 6.00 | < 6.00 |  | 
COCCOc1cc2ncnc(Sc3cccc(NC(=O)Nc4cc(C(C)(C)C)nn4-c4cccc(C)c4)c3)c2cc1OC [Ex 287, 1-(3-tert-butyl-1-m-tolyl-1H-pyrazol-5-yl)-3-(3-(6-methoxy-7-(2-methoxyethoxy)quinazolin-4-ylthio)phenyl)urea] | > 6.60 | 6.00 to 6.30 | < 6.00 | < 6.00 |  | 
COc1cc2ncnc(Oc3cccc(NC(=O)Nc4cc(C(C)(C)C)nn4-c4ccc(C)cc4)c3C)c2cc1OC [Ex 288, 1-(3-tert-butyl-1-p-tolyl-1H-pyrazol-5-yl)-3-(3-(6,7-dimethoxyquinazolin-4-yloxy)-2-methylphenyl)urea] | > 6.60 | 6.30 to 6.60 | < 6.00 | < 6.00 |  | 
COc1cc2ncnc(Sc3cccc(NC(=O)Nc4cc(C(C)(C)C)nn4-c4cccc(F)c4)c3)c2cc1OC [Ex 360, 1-(3-tert-butyl-1-(3-fluorophenyl)-1H-pyrazol-5-yl)-3-(3-(6,7-dimethoxyquinazolin-4-ylthio)phenyl)urea] | > 6.60 | 6.30 to 6.60 | < 6.00 | < 6.00 |  | 
COc1ccc(-n2nc(C(C)(C)C)cc2NC(=O)Nc2cccc(Sc3ncnc4cc(OC)c(OC)cc34)c2)cc1 [Ex 362, 1-(3-tert-butyl-1-(4-methoxyphenyl)-1H-pyrazol-5-yl)-3-(3-(6,7-dimethoxyquinazolin-4-ylthio)phenyl)urea] | > 6.60 | 6.00 to 6.30 | < 6.00 | < 6.00 |  | 
COc1cc2ncnc(Oc3cccc(NC(=O)Nc4cc(C(C)(C)C)nn4-c4ccc(Cl)cc4)c3)c2cc1OC [Ex 365, 1-(3-tert-butyl-1-(4-chlorophenyl)-1H-pyrazol-5-yl)-3-(3-(6,7-dimethoxyquinazolin-4-yloxy)phenyl)urea] | > 6.60 | 6.30 to 6.60 | < 6.00 | < 6.00 |  | 
COc1cc2ncnc(Sc3cccc(NC(=O)Nc4cc(C(C)(C)C)nn4-c4ccc(Cl)cc4)c3)c2cc1OC [Ex 366, 1-(3-tert-butyl-1-(4-chlorophenyl)-1H-pyrazol-5-yl)-3-(3-(6,7-dimethoxyquinazolin-4-ylthio)phenyl)urea] | > 6.60 | 6.30 to 6.60 | < 6.00 | < 6.00 |  | 
COc1cc2ncnc(Oc3ccc(F)c(NC(=O)Nc4cc(C(C)(C)C)on4)c3)c2cc1OC [Ex 367, 1-(5-tert-butylisoxazol-3-yl)-3-(5-(6,7-dimethoxyquinazolin-4-yloxy)-2-fluorophenyl)urea] | > 6.60 |  | > 6.60 | > 6.60 | 6.30 to 6.60 | > 6.60
COc1cc2ncnc(Oc3cccc(NC(=O)Nc4cc(C5(C(F)(F)F)CC5)on4)c3)c2cc1OC [Ex 377, 1-(3-(6,7-dimethoxyquinazolin-4-yloxy)phenyl)-3-(5-(1-(trifluoromethyl)cyclopropyl)isoxazol-3-yl)urea] | > 6.60 |  | > 6.60 | > 6.60 | > 6.60 | > 6.60
COc1cc2ncnc(Sc3cccc(NC(=O)Nc4cc(C5(C(F)(F)F)CC5)on4)c3)c2cc1OC [Ex 378, 1-(3-(6,7-dimethoxyquinazolin-4-ylthio)phenyl)-3-(5-(1-(trifluoromethyl)cyclopropyl)isoxazol-3-yl)urea] | 6.30 to 6.60 |  | > 6.60 | > 6.60 | > 6.60 | > 6.60
COc1cc2ncnc(Sc3cccc(NC(=O)Nc4cc(C(F)(F)F)no4)c3)c2cc1OC [Ex 382, 1-(3-(6,7-dimethoxyquinazolin-4-ylthio)phenyl)-3-(3-(trifluoromethyl)isoxazol-5-yl)urea] | < 6.00 |  | > 6.60 | > 6.60 | < 6.00 | > 6.60
CCOc1cc2ncnc(Oc3cccc(NC(=O)Nc4cc(C(C)(C)F)no4)c3)c2cc1OC [Ex 385, 1-(3-(7-ethoxy-6-methoxyquinazolin-4-yloxy)phenyl)-3-(3-(2-fluoropropan-2-yl)isoxazol-5-yl)urea] | 6.30 to 6.60 |  | > 6.60 | > 6.60 | 6.30 to 6.60 | > 6.60
CCOc1cc2ncnc(Oc3cccc(NC(=O)Nc4cc(C(C)(CF)CF)on4)c3)c2cc1OC [Ex 386, 1-(5-(1,3-difluoro-2-methylpropan-2-yl)isoxazol-3-yl)-3-(3-(7-ethoxy-6-methoxyquinazolin-4-yloxy)phenyl)urea] | > 6.60 |  | > 6.60 | > 6.60 | > 6.60 | > 6.60
CCOc1cc2ncnc(Sc3cccc(NC(=O)Nc4cc(C(C)(C)F)no4)c3)c2cc1OC [Ex 389, 1-(3-(7-ethoxy-6-methoxyquinazolin-4-ylthio)phenyl)-3-(3-(2-fluoropropan-2-yl)isoxazol-5-yl)urea] | 6.00 to 6.30 |  | > 6.60 | > 6.60 | 6.30 to 6.60 | > 6.60
CCOc1cc2c(Oc3cccc(NC(=O)Nc4cc(C(C)(C)F)no4)c3)ncnc2cc1OC [Ex 392, 1-(3-(6-ethoxy-7-methoxyquinazolin-4-yloxy)phenyl)-3-(3-(2-fluoropropan-2-yl)isoxazol-5-yl)urea] | > 6.60 |  | > 6.60 | > 6.60 | > 6.60 | > 6.60
CCOc1cc2c(Oc3cccc(NC(=O)Nc4cc(C(C)(CF)CF)on4)c3)ncnc2cc1OC [Ex 393, 1-(5-(1,3-difluoro-2-methylpropan-2-yl)isoxazol-3-yl)-3-(3-(6-ethoxy-7-methoxyquinazolin-4-yloxy)phenyl)urea] | > 6.60 |  | > 6.60 | > 6.60 | > 6.60 | > 6.60
CCOc1cc2c(Sc3cccc(NC(=O)Nc4cc(C(C)(C)F)no4)c3)ncnc2cc1OC [Ex 394, 1-(3-(6-ethoxy-7-methoxyquinazolin-4-ylthio)phenyl)-3-(3-(2-fluoropropan-2-yl)isoxazol-5-yl)urea] | > 6.60 |  | > 6.60 | > 6.60 | 6.30 to 6.60 | > 6.60
CCOc1cc2c(Sc3cccc(NC(=O)Nc4cc(C(C)(CF)CF)on4)c3)ncnc2cc1OC [Ex 395, 1-(5-(1,3-difluoro-2-methylpropan-2-yl)isoxazol-3-yl)-3-(3-(6-ethoxy-7-methoxyquinazolin-4-ylthio)phenyl)urea] | > 6.60 |  | > 6.60 | > 6.60 | > 6.60 | > 6.60
CCc1cc(NC(=O)Nc2cccc(Sc3ncnc4cc(OC)c(OC)cc34)c2)n(-c2ccccc2)n1 [Ex 399, 1-(3-(6,7-dimethoxyquinazolin-4-ylthio)phenyl)-3-(3-ethyl-1-phenyl-1H-pyrazol-5-yl)urea] | 6.30 to 6.60 |  | > 6.60 | > 6.60 | 6.30 to 6.60 | > 6.60
CCOc1cc2ncnc(Sc3cccc(NC(=O)Nc4cc(C(C)(CF)CF)on4)c3)c2cc1OC [Example 388, 1-(5-(1,3-difluoro-2-methylpropan-2-yl)isoxazol-3-yl)-3-(3-(7-ethoxy-6-methoxyquinazolin-4-ylthio)phenyl)urea] | 6.30 to 6.60 |  | > 6.60 | > 6.60 | 6.30 to 6.60 | > 6.60
